{"source": "patent US6034246A", "about": "“2-arylbenzazole compounds” (Cancer Research Campaign Technology Limited, priority 1995, dated 2000)", "key": {"ER-tumors MT-1 and MT-3": {"test_system": "ER-tumors MT-1 and MT-3", "details": "words, background statement; cited from earlier work"}, "A2780-cisR": {"test_system": "A2780-cisR", "assay": "in vitro activity against human ovarian cell line A2780-cisR (Table 2)", "format": "cell-based", "details": "A2780-cisR (platinum-resistant)", "excerpt": "(§1) As usual the results are expressed in terms of IS50 values (concentration or dosage required to reduce cell growth or proliferation by 50%) calculated from dose-effect curves plotted for cultures of the cells in question.\n(§2) In carrying out the in vitro studies, the cytotoxicity assays may be carried out by a method corresponding substantially to the following example:\n(§3) Cells were maintained in a continuous logarithmic culture in Dublecco's medium supplemented with 10% fetal calf serum and penicillin (100 IU/ml) and streptomycin ([…]). The cells were mildly trypsinized for passage and for use in assays. On day zero, 100 μl of trypsinized tumor cells (1×10^4 /ml) were plated in the wells of 96-well flat-bottom microtiter plates. The plates were incubated for 2 days at 37° C. and 5% CO2 in air to allow the cells to adhere and resume exponential growth prior to the addition of drugs.\n(§4) On day two 50 μl of the highest drug concentration was added to the wells of column 12 and from there serially diluted 3-fold to column 1 by serial transfer of 50 μl using an 8-channel micropipette. The final volume of column 1 was adjusted to 100 μl. No additions were made to the wells of rows A and B, which served as controls. The plates were further incubated for 5 days at 37° C. and 5% CO2 in air. Each compound was tested in duplicate.\n(§5) The plates were kept at 4° C. overnight before reading on an inverted microscope equipped with an automated scanning stage. Fluorescence intensity was measured in arbitrary units by a photomultiplier. An HP-87 computer controlled the movement of the stage and also collected and processed the data from the multiplier."}, "CH1": {"test_system": "CH1", "assay": "in vitro activity against human ovarian cell line CH1 (Table 2)", "format": "cell-based", "excerpt": "as §1, §2, §3, §4, §5"}, "A2780": {"test_system": "A2780", "assay": "in vitro activity against human ovarian cell line A2780 (Table 2)", "format": "cell-based", "details": "A2780 (parental line)", "excerpt": "as §1, §2, §3, §4, §5"}, "CH1-cisR": {"test_system": "CH1-cisR", "assay": "in vitro activity against human ovarian cell line CH1-cisR (Table 2)", "format": "cell-based", "excerpt": "as §1, §2, §3, §4, §5"}, "breast carcinoma BO": {"test_system": "breast carcinoma BO", "assay": "in vivo antitumor test, human breast carcinoma BO xenotransplanted in nude mice", "details": "for Relative tumor volume (T/C %) / evaluation: BO", "method": "(§6) In one typical set of experiments, four human breast carcinomas xenotransplanted into female Ncr: nu/nu (Taconic, Germantown, U.S.A.) or male Bom: NMRI-nu/nu mice (Bomholtgaard, Ry, Denmark) were used for the evaluation of antitumor activity. Mice weighing 20-25 g at the start of experiments were held under sterile conditions at 24-26° C., 50% relative humidity and 12 hours light-dark rhythm in laminar flow shelves. The animals received autoclaved food and bedding; the drinking water was filtered and acidified (pH4.0).\nThe following breast carcinoma cell lines were used: BO; MCF-7 (NCI, U.S.A.); MT-1 and MT-3. The tumors BO and MCF-7 are ER^+ models: the carcinomas MT-1 and MT-3 are ER^- ones. Tumors were transplanted subcutaneously (s.c.) as pieces (2×2 mm) into the left flank of 5-8 nude mice/experimental group. Drug treatment was initiated when the tumors reached a diameter of 4-5 mm. Compounds were solubized with Tween 80 (maximum 10% of final volume) and suspended in saline. Suspensions were preparted freshly for each drug administration and injected in a volume of 0.2 mL/20 g body weight employing a once-weekly schedule (x3). Tumor size was measured twice weekly with a caliper. Median tumor volume/group was related to the first treatment day and expressed as Relative Tumor Volume (RTV). For the estimation of toxicity, body weight was determined twice weekly and the mean percentage body weight change (BCC) was calculated. In one experiment blood was obtained from the retroorbital venous plexus of mice and blood cells were determined with a Coulter counter (Model T41). […]"}, "[1]": {"assay": "estimation of toxicity in tumor-bearing nude mice (body weight, blood cells, survival)", "format": "in vivo, mouse", "details": "BO", "method": "as §6\nThe following breast carcinoma cell lines were used: BO; MCF-7 (NCI, U.S.A.); MT-1 and MT-3. The tumors BO and MCF-7 are ER^+ models: the carcinomas MT-1 and MT-3 are ER^- ones. Tumors were transplanted subcutaneously (s.c.) as pieces (2×2 mm) into the left flank of 5-8 nude mice/experimental group. Drug treatment was initiated when the tumors reached a diameter of 4-5 mm. Compounds were solubized with Tween 80 (maximum 10% of final volume) and suspended in saline. Suspensions were preparted freshly for each drug administration and injected in a volume of 0.2 mL/20 g body weight employing a once-weekly schedule (x3). Tumor size was measured twice weekly with a caliper. Median tumor volume/group was related to the first treatment day and expressed as Relative Tumor Volume (RTV). For the estimation of toxicity, body weight was determined twice weekly and the mean percentage body weight change (BCC) was calculated. In one experiment blood was obtained from the retroorbital venous plexus of mice and blood cells were determined with a Coulter counter (Model T41)."}, "MDA 468": {"test_system": "MDA 468", "assay": "in vitro inhibitory activity against human breast tumour cell line MDA 468 (Table 4)", "format": "cell-based", "details": "initial seeding density 2.5 × 10^2 cells/well", "excerpt": "(§7) Tables 1 to 4 at the end of the present description show in vitro test results obtained in various sets of experiments for the cytotoxic activity of several of the benzazole compounds concerned, including also for reference results for the compound CJM 126 and comparative results for compound DF129, when tested against a range of tumor cell lines which includes ovarian, lung and certain colon and renal cancer cells from the National Cancer Institute (USA) collection. As usual the results are expressed in terms of IS50 values (concentration or dosage required to reduce cell growth or proliferation by 50%) calculated from dose-effect curves plotted for cultures of the cells in question.\nas §2, §3, §4\nas §5, with “On day 7 the test was terminated by the addition of 100 μl saline containing 0.002% w/v propidium iodide (Sigma), 0.3% drawing ink (Staedtler \"Marsmatic 745\"--Trade Mark) and 0.5% Triton X-100. The” for “The”\n(§8) For each compound tested a dose-response curve was obtained and the IC50 value (the drug concentration at 50% inhibition of cell growth) was calculated.\n(§9) *Initial seeding density 2.5 × 10^2 cells/well"}, "MCF-7wt": {"test_system": "MCF-7wt", "assay": "in vitro inhibitory activity against human breast tumour cell line MCF-7wt (Table 4)", "format": "cell-based", "details": "initial seeding density 2.5 × 10^2 cells/well", "excerpt": "as §7, §2, §3, §4\nas §5, with “On day 7 the test was terminated by the addition of 100 μl saline containing 0.002% w/v propidium iodide (Sigma), 0.3% drawing ink (Staedtler \"Marsmatic 745\"--Trade Mark) and 0.5% Triton X-100. The” for “The”\nas §8, §9"}, "MCF-7B": {"test_system": "MCF-7B", "assay": "in vitro inhibitory activity against human breast tumour cell line MCF-7B (Table 4)", "format": "cell-based", "details": "initial seeding density 2.5 × 10^2 cells/well", "excerpt": "as §7, §2, §3\nas §4, with “The plates were further incubated for 5 days at 37° C. and 5% CO2 in air. Each compound was tested in duplicate.” left out\nOn day 7 the test was terminated by the addition of 100 μl saline containing 0.002% w/v propidium iodide (Sigma), 0.3% drawing ink (Staedtler \"Marsmatic 745\"--Trade Mark) and 0.5% Triton X-100. The plates were kept at 4° C. overnight before reading on an inverted microscope equipped with an automated scanning stage. Fluorescence intensity was measured in arbitrary units by a photomultiplier. […]"}, "[2]": {"test_system": "human breast cancer cell lines", "assay": "in vitro inhibition of human breast cancer cell lines", "format": "cell-based", "details": "words, Table 4", "excerpt": "as §7, §2, §3, §4\nOn day 7 the test was terminated by the addition of 100 μl saline containing 0.002% w/v propidium iodide (Sigma), 0.3% drawing ink (Staedtler \"Marsmatic 745\"--Trade Mark) and 0.5% Triton X-100. The plates were kept at 4° C. overnight before reading on an inverted microscope equipped with an automated scanning stage. Fluorescence intensity was measured in arbitrary units by a photomultiplier. An HP-87 computer controlled the movement of the stage and also collected and processed the data from the multiplier.\nas §8"}, "[3]": {"details": "qd 27, 34, 41, 20 mg/Kg/inj. i.p."}, "[4]": {"details": "qd 27, 34, 41, 200 mg/Kg/inj. i.p. (Table 5)"}}, "data": [{"smiles": "N.N.[Cl][Pt][Cl]", "note": "[Cisplatin]", "values": [{"measurement": "responsiveness of MT-1 and MT-3 tumors to drug", "setting": "ER-tumors MT-1 and MT-3", "value": "only modestly sensitive"}, {"measurement": "IC50", "setting": "A2780-cisR", "value": 5200, "unit": "nM"}, {"measurement": "IC50", "setting": "CH1", "value": 100, "unit": "nM"}, {"measurement": "IC50", "setting": "A2780", "value": 330, "unit": "nM"}, {"measurement": "IC50", "setting": "CH1-cisR", "value": 700, "unit": "nM"}]}, {"smiles": "CC[C@]1(O)C[C@H]2CN(CCc3c([nH]c4ccccc34)[C@@](C(=O)OC)(c3cc4c(cc3OC)N(C=O)[C@H]3[C@@](O)(C(=O)OC)[C@H](OC(C)=O)[C@]5(CC)C=CCN6CC[C@]43[C@@H]65)C2)C1", "note": "[vincristine]", "values": [{"measurement": "responsiveness of MT-1 and MT-3 tumors to drug", "setting": "ER-tumors MT-1 and MT-3", "value": "completely unresponsive"}]}, {"smiles": "CCCCCCCCCCCCCCCCOP(=O)([O-])OCC[N+](C)(C)C", "note": "[hexadecylphosphocoline]", "values": [{"measurement": "responsiveness of MT-1 and MT-3 tumors to drug", "setting": "ER-tumors MT-1 and MT-3", "value": "exquisitively sensitive"}]}, {"smiles": "Nc1cccc(-c2nc3ccccc3s2)c1", "note": "[2-(3-Aminophenyl)-benzothiazole]", "values": [{"measurement": "Relative tumor volume (T/C %)", "setting": "breast carcinoma BO; qd 27, 34, 41, 2 mg/Kg/inj. i.p., not marked significant", "value": 78, "unit": "%"}, {"measurement": "evaluation", "setting": "breast carcinoma BO; [3]", "value": "+ (T/C % = 36-50%)"}, {"measurement": "Relative tumor volume (T/C %)", "setting": "breast carcinoma BO; qd 27, 34, 41, 20 mg/Kg/inj. i.p., * significant versus controls (p < 0.05)", "value": 48, "unit": "%"}, {"measurement": "evaluation", "setting": "breast carcinoma BO; [4]", "value": "++ (T/C = 21-35%)"}, {"measurement": "Relative tumor volume (T/C %)", "setting": "breast carcinoma BO; qd 27, 34, 41, 200 mg/Kg/inj. i.p. (Table 5), * significant versus controls (p < 0.05)", "value": 32, "unit": "%"}, {"measurement": "inhibitory effects against the breast carcinoma BO", "setting": "breast carcinoma BO; words", "value": "elicited inhibitory effects"}, {"measurement": "BWC (body weight change)", "setting": "[1]; qd 27, 34, 41, 2 mg/Kg/inj. i.p.", "value": 2, "unit": "%"}, {"measurement": "BWC (body weight change)", "setting": "[1]; [3]", "value": -3, "unit": "%"}, {"measurement": "BWC (body weight change)", "setting": "[1]; [4]", "value": -6, "unit": "%"}]}, {"smiles": "Nc1ccc(-c2nc3ccccc3s2)cc1Br", "note": "[DF209, 2-(4'-amino-3'-bromophenyl)benzothiazole]", "values": [{"measurement": "IC50", "setting": "MDA 468", "value": "< 1", "unit": "nM"}, {"measurement": "IC50", "setting": "MCF-7wt", "value": "< 1", "unit": "nM"}, {"measurement": "IC50", "setting": "MCF-7B", "value": 1, "unit": "nM"}, {"measurement": "potency against breast cancer cells relative to CJM 126", "setting": "[2]", "value": "more potent than even the compound CJM 126"}]}]}
